pIC50: −log10 of the molar value. Activity calls are given as the source filed them. No cut-off for these calls is given here.
Assays:
[1] = biological target: T1, Histone-lysine N-methyltransferase EHMT1 (Homo sapiens) (UniProt Q9H9B1); test: Inhibition of methyltransferase activity of EHMT1 (unknown origin)-mediated dimethylation of a biotinylated histone H3 peptide at lysine-9 at 100 uM by FRET-based LANCE ultra G9a assay
T1 sequence (whole entry): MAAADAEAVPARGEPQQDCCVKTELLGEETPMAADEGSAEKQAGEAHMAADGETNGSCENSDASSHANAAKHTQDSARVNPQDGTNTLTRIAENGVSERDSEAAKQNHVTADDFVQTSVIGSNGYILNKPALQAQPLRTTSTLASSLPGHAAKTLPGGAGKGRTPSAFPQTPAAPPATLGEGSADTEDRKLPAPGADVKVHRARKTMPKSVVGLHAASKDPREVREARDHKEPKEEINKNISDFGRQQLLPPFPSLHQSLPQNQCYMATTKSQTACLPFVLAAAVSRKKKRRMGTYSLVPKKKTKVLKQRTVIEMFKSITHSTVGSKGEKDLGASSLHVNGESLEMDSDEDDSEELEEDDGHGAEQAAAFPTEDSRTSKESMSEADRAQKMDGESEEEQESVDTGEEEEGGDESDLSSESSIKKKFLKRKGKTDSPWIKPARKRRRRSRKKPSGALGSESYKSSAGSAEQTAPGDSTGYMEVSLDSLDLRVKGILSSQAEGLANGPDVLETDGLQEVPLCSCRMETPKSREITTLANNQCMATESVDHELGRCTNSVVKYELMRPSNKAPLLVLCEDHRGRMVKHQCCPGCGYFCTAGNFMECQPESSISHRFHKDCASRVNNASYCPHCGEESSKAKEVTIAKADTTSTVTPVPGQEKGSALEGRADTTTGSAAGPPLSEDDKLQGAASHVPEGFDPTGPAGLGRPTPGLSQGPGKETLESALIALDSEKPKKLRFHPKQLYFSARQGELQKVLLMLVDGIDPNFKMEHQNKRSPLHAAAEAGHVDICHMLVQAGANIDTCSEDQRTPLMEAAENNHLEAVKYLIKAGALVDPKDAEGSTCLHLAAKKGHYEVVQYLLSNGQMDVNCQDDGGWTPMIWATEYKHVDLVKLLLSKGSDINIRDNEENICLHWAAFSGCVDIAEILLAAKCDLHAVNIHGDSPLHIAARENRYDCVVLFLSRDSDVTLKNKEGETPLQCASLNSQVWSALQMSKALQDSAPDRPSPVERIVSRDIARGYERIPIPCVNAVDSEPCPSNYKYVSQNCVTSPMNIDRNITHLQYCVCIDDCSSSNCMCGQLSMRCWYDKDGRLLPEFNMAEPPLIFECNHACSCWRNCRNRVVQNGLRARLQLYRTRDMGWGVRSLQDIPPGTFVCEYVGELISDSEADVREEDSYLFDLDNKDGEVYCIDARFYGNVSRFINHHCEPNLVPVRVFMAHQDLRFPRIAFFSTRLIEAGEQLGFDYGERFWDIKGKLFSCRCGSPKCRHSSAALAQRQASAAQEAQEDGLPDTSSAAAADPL

[2] = biological target: T2, Histone-lysine N-methyltransferase EHMT1 (Homo sapiens, UniProt Q9H9B1); test: Inhibition of methyltransferase activity of EHMT1 (unknown origin)-mediated dimethylation of a biotinylated histone H3 peptide at lysine-9 by FRET-based LANCE ultra G9a assay
T2 sequence (Q9H9B1 whole entry): T1 sequence (whole entry)

[3] = biological target: T3, Histone-lysine N-methyltransferase EHMT2 (Homo sapiens, UniProt Q96KQ7); test: Inhibition of methyltransferase activity of EHMT2 (unknown origin)-mediated dimethylation of a biotinylated histone H3 peptide at lysine-9 by FRET-based LANCE ultra G9a assay
T3 sequence (Q96KQ7 whole entry): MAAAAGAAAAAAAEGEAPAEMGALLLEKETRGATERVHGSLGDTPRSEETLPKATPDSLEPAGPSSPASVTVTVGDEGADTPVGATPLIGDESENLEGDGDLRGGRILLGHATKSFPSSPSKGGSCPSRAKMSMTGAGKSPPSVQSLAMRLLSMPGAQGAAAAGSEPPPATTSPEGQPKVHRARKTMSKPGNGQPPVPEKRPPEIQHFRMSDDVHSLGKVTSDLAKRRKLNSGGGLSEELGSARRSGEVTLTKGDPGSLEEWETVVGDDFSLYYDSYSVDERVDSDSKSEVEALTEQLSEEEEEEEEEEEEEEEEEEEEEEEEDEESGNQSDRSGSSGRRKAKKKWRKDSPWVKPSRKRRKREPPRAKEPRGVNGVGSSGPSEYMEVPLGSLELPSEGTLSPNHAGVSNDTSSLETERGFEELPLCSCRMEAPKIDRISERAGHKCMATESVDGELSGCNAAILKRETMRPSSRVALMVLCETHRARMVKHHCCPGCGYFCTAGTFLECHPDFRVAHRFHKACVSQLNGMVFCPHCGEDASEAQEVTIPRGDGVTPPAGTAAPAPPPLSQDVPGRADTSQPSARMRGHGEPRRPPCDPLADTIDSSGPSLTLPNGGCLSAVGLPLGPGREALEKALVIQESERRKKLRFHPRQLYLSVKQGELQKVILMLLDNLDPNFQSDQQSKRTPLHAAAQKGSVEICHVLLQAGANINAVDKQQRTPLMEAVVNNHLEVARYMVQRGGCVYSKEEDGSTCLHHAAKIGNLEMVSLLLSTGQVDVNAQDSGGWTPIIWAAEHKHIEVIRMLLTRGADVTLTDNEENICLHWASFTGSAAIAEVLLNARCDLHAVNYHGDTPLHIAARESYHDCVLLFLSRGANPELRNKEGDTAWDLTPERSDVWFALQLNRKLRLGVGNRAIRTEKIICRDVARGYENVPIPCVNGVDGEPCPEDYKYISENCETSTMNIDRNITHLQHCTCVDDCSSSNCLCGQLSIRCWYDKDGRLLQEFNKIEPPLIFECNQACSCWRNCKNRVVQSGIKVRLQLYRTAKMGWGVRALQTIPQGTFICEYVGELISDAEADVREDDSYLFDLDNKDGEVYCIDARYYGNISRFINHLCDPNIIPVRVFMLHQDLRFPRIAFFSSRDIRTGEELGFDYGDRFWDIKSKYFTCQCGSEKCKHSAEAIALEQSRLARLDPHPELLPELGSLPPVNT

[4] = biological target: T1, Histone-lysine N-methyltransferase EHMT1 (Homo sapiens); test: Non-competitive inhibition of methyltransferase activity of EHMT1 (unknown origin)
[5] = biological target: T4, Histone-lysine N-methyltransferase EHMT2 (Homo sapiens) (UniProt Q96KQ7); test: Non-competitive inhibition of methyltransferase activity of EHMT2 (unknown origin)
T4 sequence (whole entry): T3 sequence (Q96KQ7 whole entry)

[6] = biological target: T5, DNA (cytosine-5)-methyltransferase 1 (Homo sapiens, UniProt P26358); test: Inhibition of DNMT1 (unknown origin) at 200 uM
[7] = biological target: Protein arginine N-methyltransferase 1 (Homo sapiens) (UniProt Q99873); test: Inhibition of PRMT1 (unknown origin) at 200 uM
[8] = biological target: T6, Histone-lysine N-methyltransferase SETD7 (Homo sapiens) (UniProt Q8WTS6); test: Inhibition of SET7/9 (unknown origin) at 200 uM
T6 sequence (whole entry): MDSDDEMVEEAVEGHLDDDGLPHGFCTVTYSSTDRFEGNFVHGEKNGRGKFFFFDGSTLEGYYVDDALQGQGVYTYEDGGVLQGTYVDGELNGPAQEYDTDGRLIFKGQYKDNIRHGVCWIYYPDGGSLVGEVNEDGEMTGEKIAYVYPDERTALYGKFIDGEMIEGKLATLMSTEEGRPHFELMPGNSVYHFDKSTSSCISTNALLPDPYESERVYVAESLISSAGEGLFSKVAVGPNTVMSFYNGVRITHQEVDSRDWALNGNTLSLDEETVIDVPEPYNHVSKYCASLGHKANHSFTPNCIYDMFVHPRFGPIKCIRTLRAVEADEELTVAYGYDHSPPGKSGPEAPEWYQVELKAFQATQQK

[9] = biological target: T5, DNA (cytosine-5)-methyltransferase 1; test: Inhibition of DNMT1 (unknown origin)

Chain of Protein arginine N-methyltransferase 1 (Homo sapiens) (Q99873 whole entry, looked up): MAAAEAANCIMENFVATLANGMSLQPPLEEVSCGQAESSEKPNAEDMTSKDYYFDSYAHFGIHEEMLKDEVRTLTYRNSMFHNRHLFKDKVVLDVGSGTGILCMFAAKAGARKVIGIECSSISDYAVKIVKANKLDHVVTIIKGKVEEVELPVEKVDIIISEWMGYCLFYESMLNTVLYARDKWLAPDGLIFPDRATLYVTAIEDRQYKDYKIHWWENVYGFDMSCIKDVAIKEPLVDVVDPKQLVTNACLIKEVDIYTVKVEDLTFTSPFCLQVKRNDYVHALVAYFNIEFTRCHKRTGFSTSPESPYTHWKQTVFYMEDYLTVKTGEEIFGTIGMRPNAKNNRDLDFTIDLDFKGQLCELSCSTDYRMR
T5 sequence (P26358 whole entry): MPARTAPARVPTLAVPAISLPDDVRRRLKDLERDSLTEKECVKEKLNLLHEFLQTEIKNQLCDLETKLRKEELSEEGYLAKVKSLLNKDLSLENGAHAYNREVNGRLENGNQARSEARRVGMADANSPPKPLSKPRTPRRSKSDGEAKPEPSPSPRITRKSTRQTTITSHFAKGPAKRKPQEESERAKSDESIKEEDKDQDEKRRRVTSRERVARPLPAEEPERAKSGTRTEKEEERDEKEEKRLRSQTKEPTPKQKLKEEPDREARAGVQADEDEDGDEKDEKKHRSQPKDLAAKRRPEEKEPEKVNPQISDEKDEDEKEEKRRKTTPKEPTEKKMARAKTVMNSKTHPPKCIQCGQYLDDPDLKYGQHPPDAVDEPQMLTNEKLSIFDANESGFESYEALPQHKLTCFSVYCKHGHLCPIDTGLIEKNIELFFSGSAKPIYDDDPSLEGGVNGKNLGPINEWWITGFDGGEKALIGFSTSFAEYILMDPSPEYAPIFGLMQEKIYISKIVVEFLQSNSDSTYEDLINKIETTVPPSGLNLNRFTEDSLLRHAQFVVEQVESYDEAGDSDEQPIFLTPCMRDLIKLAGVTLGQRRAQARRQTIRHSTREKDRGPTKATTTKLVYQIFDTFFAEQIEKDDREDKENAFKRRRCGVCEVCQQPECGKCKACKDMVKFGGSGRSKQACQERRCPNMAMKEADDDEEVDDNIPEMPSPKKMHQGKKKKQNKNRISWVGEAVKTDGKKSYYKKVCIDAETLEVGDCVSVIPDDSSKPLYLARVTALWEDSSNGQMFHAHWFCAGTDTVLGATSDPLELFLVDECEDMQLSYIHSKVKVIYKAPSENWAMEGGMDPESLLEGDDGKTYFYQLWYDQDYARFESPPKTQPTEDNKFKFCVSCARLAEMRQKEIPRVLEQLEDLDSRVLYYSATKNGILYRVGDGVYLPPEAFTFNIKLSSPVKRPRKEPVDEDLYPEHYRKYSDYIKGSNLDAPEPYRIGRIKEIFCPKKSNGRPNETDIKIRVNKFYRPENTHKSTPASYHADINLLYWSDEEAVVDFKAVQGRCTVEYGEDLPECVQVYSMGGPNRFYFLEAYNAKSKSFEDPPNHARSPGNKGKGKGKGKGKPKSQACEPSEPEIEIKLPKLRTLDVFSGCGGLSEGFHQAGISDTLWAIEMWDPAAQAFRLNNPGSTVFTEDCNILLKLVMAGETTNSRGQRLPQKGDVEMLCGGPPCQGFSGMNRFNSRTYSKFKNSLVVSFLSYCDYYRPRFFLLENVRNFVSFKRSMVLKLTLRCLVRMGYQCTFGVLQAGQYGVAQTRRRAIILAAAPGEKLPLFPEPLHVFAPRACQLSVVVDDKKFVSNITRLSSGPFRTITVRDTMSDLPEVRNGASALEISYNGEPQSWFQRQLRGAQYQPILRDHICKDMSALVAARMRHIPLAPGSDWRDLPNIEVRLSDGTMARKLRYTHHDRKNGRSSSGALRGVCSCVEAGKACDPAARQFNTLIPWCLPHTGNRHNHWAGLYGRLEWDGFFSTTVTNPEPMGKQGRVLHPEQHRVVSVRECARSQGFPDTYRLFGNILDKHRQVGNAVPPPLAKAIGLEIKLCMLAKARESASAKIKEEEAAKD

## CCCCC[C@H]1O[C@@H](n2cnc3c(N)ncnc32)[C@H](O)[C@@H]1O
[1]
  inhibition: > 40%
[2]
  pIC50: 4.06
[3]
  pIC50: 3.99
[4]
  inhibition: Active
[5]
  inhibition: Active
[6]
  inhibition: inactive
[7]
  inhibition: inactive
[8]
  inhibition: inactive

## COc1ccc(CC(N)C[C@H]2O[C@@H](n3cnc4c(N)ncnc43)[C@H](O)[C@@H]2O)cc1OC (stereo partly drawn)
[1]
  inhibition: > 40%
[2]
  pIC50: 3.83
[3]
  pIC50: 3.80

## Nc1ncnc2c1ncn2[C@@H]1O[C@H](C[C@@H](N)CC[C@H](N)C(=O)O)[C@@H](O)[C@H]1O [SINEFUNGIN]
[2]
  pIC50: 3.29

## Nc1ncnc2c1ncn2[C@@H]1O[C@H](CCCc2ccccc2)[C@@H](O)[C@H]1O
[1]
  inhibition: > 40%
[2]
  pIC50: 3.63
[3]
  pIC50: 3.72

## Nc1ncnc2c1ncn2[C@@H]1O[C@H](CC(N)CC2CCCCC2)[C@@H](O)[C@H]1O (stereo partly drawn)
[1]
  inhibition: > 40%
[2]
  pIC50: 5.82
[3]
  pIC50: 5.80
[4]
  inhibition: Active
[5]
  inhibition: Active
[9]
  pIC50: 3.75
[7]
  inhibition: inactive
[8]
  inhibition: inactive

Reference: ChEMBL document CHEMBL3259565 (ACS Med Chem Lett, 2014)
